Test results reported in patent US20220387435A1, “USE OF MULTI-TARGET PROTEIN KINASE INHIBITOR” (CSPC Zhongqi Pharmaceutical Technology (Shijiazhuang) Co., …, priority 2019, published 2022).
Several values for one entry are separate records, joined by “and”; a condition that tells them apart may be missing. Identical values can stand only once.

Tested on: Chinese adult subjects with FLT3-mutant R/R AML
Assay: Phase II clinical study, efficacy
Format: in vivo, human
Settings: for Overall CR rate (95% CI), (CR+CRh+CRi)/enrolled subjects / best efficacy: CR / best efficacy: CRh / best efficacy: CRi / best efficacy: NE / best efficacy: PD / best efficacy: PR / best efficacy: SD: FAS; for disengagement from blood transfusion: the CR and the CRh subject
Procedure: 28 consecutive days was regarded as one treatment cycle.
The trial started with the 150 mg BID group, and after completing the first cycle of the tolerability investigation of 3 subjects in this group, the tolerability study of the 200 mg BID group was carried out. The principle of the subject enrollment was to give priority to meeting three subjects in the tolerability investigation period. Since the 300 mg QD group had been proven to be well tolerated in a single tolerability trial, other qualified subjects screened during the tolerability investigation period could directly enter the 300 mg QD group.
The second stage was the dose expansion period. After the completion of the first cycle of the study in a dose group, if the investigator assessed that the subjects had significant benefits, the dose group would undergo the cohort expansion to further explore possible effective doses, and continue to increase to at least 10 subjects. During this period, investigators, sponsors, quantitative pharmacology experts, clinical pharmacology experts, and statistical experts discussed whether to continue the cohort expansion according to the efficacy of the dose group (see FIG. 1 for the specific trial method).
Overall CR (CR, CRh, CRi) rate: defined as the proportion of subjects who achieved CR, CRh, CRi during Compound A treatment among all subjects enrolled in this study. Subjects who were not assessed for response were included in the denominator when calculating the response rate.
(1) Three year overall survival (OS): the OS time was referred to the time from the first drug administration to the death from any cause within 3 years.
(2) Three year event-free survival (EFS): it was referred to the time from the randomized enrollment to the first occurrence of any of the following conditions within 3 years: (1) no CR (CR, CRh, CRi) occurred within 6 months of treatment, (2) relapsed after reaching the specified CR (CR, CRh, CRi), (3) disease progression, (4) all-cause death at any time during the study, whichever occurred first.
(3) Duration of response-CR (DoR-CR): the DoR-CR time was referred to the time from the first achievement of CR to the recording of hematological relapse, extramedullary disease, or death from any cause (whichever was earlier).

[1] = 0 unfavorable prognostic factors (4 subjects)
[2] = 1 unfavorable prognostic factor (9 subjects)
[3] = 2 unfavorable prognostic factors (15 subjects)
[4] = 3 subjects with FLT3-ITD^high mutation (≥0.5)
[5] = 3 subjects with FLT3-ITD^low mutation (<0.5)
[6] = 10 subjects with prior sorafenib treatment

Compound: CC(C)n1c(Nc2cccnc2)nc2cnc(Nc3ccc(N4CCN(C)CC4)cc3)nc21 [Compound A]
- CRh [1]: 2 subjects
- CRi [1]: 1 subjects
- Overall CR rate [1]: 75%
- Overall CR rate (0 unfavorable prognostic factors (4 subjects), listed as compound A): 75%
- Overall CR rate (95% CI), (CR+CRh+CRi)/enrolled subjects (150 mg BID group (N = 14)): 28.6 (8.39-58.10) %
- best efficacy: CR (150 mg BID group (N = 14)): 1 (7.1%) n (%) and 1 (7.1) n (%)
- best efficacy: CRh (150 mg BID group (N = 14)): 1 (7.1%) n (%) and 1 (7.1) n (%)
- best efficacy: CRi (150 mg BID group (N = 14)): 2 (14.3%) n (%) and 2 (14.3) n (%)
- best efficacy: NE (150 mg BID group (N = 14)): 2 (14.3) n (%)
- best efficacy: PD (150 mg BID group (N = 14)): 1 (7.1) n (%)
- best efficacy: PR (150 mg BID group (N = 14)): 2 (14.3) n (%)
- best efficacy: SD (150 mg BID group (N = 14)): 5 (35.7) n (%)
- survival rate (150 mg BID group, 3-month): 64.3%
- survival rate (150 mg BID group, 6-month): 38.6%
- survival rate (150 mg BID group, 9-month): 25.7%
- survival rate (150 mg BID group, 11-month): 25.7%
- CR/CRh cases (150 mg BID group, 14 subjects): 2 (14.3%) n (%)
- disengagement from blood transfusion (150 mg BID group): ≥ 56 days
- median EFS (150 mg BID group, 95% CI 1.3-5.9): 4.9 months
- median OS (150 mg BID group, 95% CI 2.3-NC): 4.2 months
- median time to the first CR (150 mg BID group, range 2-3 months): 2.5 months
- Overall CR rate (95% CI), (CR+CRh+CRi)/enrolled subjects (200 mg BID group (N = 4)): 0 (0.00-60.24) %
- best efficacy: CR (200 mg BID group (N = 4)): 0 (0) n (%)
- best efficacy: CRh (200 mg BID group (N = 4)): 0 (0) n (%)
- best efficacy: CRi (200 mg BID group (N = 4)): 0 (0) n (%)
- best efficacy: NE (200 mg BID group (N = 4)): 1 n (%) and 1 (25.0) n (%)
- best efficacy: PD (200 mg BID group (N = 4)): 0 (0) n (%)
- best efficacy: PR (200 mg BID group (N = 4)): 0 (0) n (%)
- best efficacy: SD (200 mg BID group (N = 4)): 3 n (%) and 3 (75.0) n (%)
- survival rate (200 mg BID group, 3-month): 25%
- median EFS (200 mg BID group, 95% CI 0.7-3.0): 2.3 months
- median OS (200 mg BID group, 95% CI 0.7-NC): 2.9 months
- Overall CR rate (95% CI), (CR+CRh+CRi)/enrolled subjects (300 mg QD group (N = 13)): 30.8 (9.09-61.43) %
- best efficacy: CR (300 mg QD group (N = 13)): 1 n (%) and 1 (7.7) n (%)
- best efficacy: CRh (300 mg QD group (N = 13)): 1 n (%) and 1 (7.7) n (%)
- best efficacy: CRi (300 mg QD group (N = 13)): 2 n (%) and 2 (15.4) n (%)
- best efficacy: NE (300 mg QD group (N = 13)): 0 (0) n (%)
- best efficacy: PD (300 mg QD group (N = 13)): 0 (0) n (%)
- best efficacy: PR (300 mg QD group (N = 13)): 0 (0) n (%)
- best efficacy: SD (300 mg QD group (N = 13)): 9 (69.2) n (%)
- survival rate (300 mg QD group, 3-month): 75.2%
- survival rate (300 mg QD group, 6-month): 50.1%
- disengagement from blood transfusion (300 mg QD group): ≥ 56 days
- median EFS (300 mg QD group, 95% CI 1.7-6.2): 2.9 months
- median OS (300 mg QD group, 95% CI 2.7-NC): 4.4 months
- median time to the first CR (300 mg QD group, range 1-3 months): 1.5 months
- CRi [2]: 2 subjects
- NE [2]: 1 subjects
- Overall CR rate [2]: 20%
- PR [2]: 1 subjects
- CR [3]: 2 subjects
- CRi [3]: 1 subjects
- Overall CR rate [3]: 20%
- PR [3]: 1 subjects
- subjects achieving CRh [4]: 2 subjects
- subjects achieving SD [4]: 1 subject
- subjects achieving PR as the best response [5]: 1 subject
- subjects achieving SD as the best response [5]: 2 subjects
- Overall CR rate (3 unfavorable prognostic factors (3 subjects)): 0%
- proportion of the M5 subjects among subjects who achieved CR/CRh/CRi (8 subjects with CR/CRh/CRi): 62.5%
- subjects achieving CRi (9 subjects with TKD mutations): 2 subjects
- subjects achieving CR [6]: 1 subject
- subjects achieving CRh [6]: 1 subject
- subjects achieving CRi [6]: 1 subject
- subjects achieving CR (22 subjects with ITD mutations): 2 subjects
- subjects achieving CRh (22 subjects with ITD mutations): 2 subjects
- subjects achieving CRi (22 subjects with ITD mutations): 2 subjects
- median EFS (31 subjects, 95% CI 2.6-5.4): 3.0 months
- median OS (31 subjects, 95% CI 2.9-NC): 4.4 months
- response (Case 2, 300 mg QD, at C3): CRi
- response (Case 2, 300 mg QD, at C4): CRh
- response (Case 3, 300 mg QD, C2): CRi
- response (Case 3, 300 mg QD, C3): CRh
- myeloblast (Case 3, 300 mg QD, in C2 (from 33.5%)): 3%
- myeloblast (Case 3, 300 mg QD, in C3): 2%
- response (Case 4, 150 mg BID, at C2): CRi
- response (Case 4, 150 mg BID, at C3): CRh
- duration of the CR response (Case 5, 150 mg BID): 5 cycles
- response (Case 5, 150 mg BID, C11): CRi
- response (Case 5, 150 mg BID, C12): CRi
- myeloblast (Case 5, 150 mg BID, after C1): 3%
- CR/CRh/CRi proportion (FAB M2 type (1/6)): 16.7%
- CR/CRh/CRi proportion (FAB M4 type (2/9)): 22.2%
- CR/CRh/CRi proportion (FAB M5 type (5/14)): 35.7%
- Overall CR rate (95% CI), (CR+CRh+CRi)/enrolled subjects (Total (N = 31)): 25.8 (11.86-44.61) %
- best efficacy: CR (Total (N = 31)): 2 (6.5%) n (%) and 2 (6.5) n (%)
- best efficacy: CRh (Total (N = 31)): 2 (6.5%) n (%) and 2 (6.5) n (%)
- best efficacy: CRi (Total (N = 31)): 4 (12.9%) n (%) and 4 (12.9) n (%)
- best efficacy: NE (Total (N = 31)): 3 (9.7) n (%)
- best efficacy: PD (Total (N = 31)): 1 (3-2) n (%)
- best efficacy: PR (Total (N = 31)): 2 (6.5%) n (%) and 2 (6.5) n (%)
- best efficacy: SD (Total (N = 31)): 17 (54.8) n (%)
- Overall CR rate (subjects with 1-2 unfavorable prognostic factors): 20%
- blast cells decreased compared with the baseline (the SD subject with FLT3-ITD^high mutation, at C2): 70%
